From patent US12622918B2, “Formulations and dosages for administering a compound that inhibits MCL1 protein” (Amgen Inc., priority 2019, dated 2026)

System: OPM2-Luc orthotopic tumors
Experiment: OPM2-Luc multiple myeloma orthotopic model, AMG 176 plus carfilzomib
Assay type: in vivo
Settings: carfilzomib 3 mg/kg IV twice weekly
Procedure: On day 0, female NSG mice were injected IV with 1×10^6 OPM2-Luc human OPM2-Luc multiple myeloma tumor cells transfected with the firefly luciferase gene.

With `CC(C)C[C@H](NC(=O)[C@H](CCc1ccccc1)NC(=O)CN1CCOCC1)C(=O)N[C@@H](Cc1ccccc1)C(=O)N[C@@H](CC(C)C)C(=O)[C@@]1(C)CO1` [carfilzomib] the “TGI (tumor burden)” value (AMG 176 20 mg/kg orally once daily, day 4 until day 20, female NSG mice) was 82% and the tolerability (NSG mice) was “Unscheduled deaths”.
